Experimental data from patent publication US12338351B2, “Dip molding emulsion, method of producing glove, and glove” (Midori Anzen Co., Ltd., priority 2018, dated 2025).

Key:
Format in all cases: physicochemical
[1] = MIBK/water distribution ratio of epoxy crosslinking agent; conditions: 5.0 g water, 5.0 g MIBK, 0.5 g crosslinking agent, 23±2° C., average of three
Procedure: Method of measuring the MIBK/water distribution ratio: in a test tube, 5.0 g of water, 5.0 g of methyl isobutyl ketone (MIBK) and 0.5 g of the epoxy crosslinking agent are precisely weighed and mixed with stirring at 23° C.±2° C. for 3 minutes, and the resulting mixture is centrifuged at 1.0×103 G for 10 minutes and thereby separated into an aqueous layer and an MIBK layer, after which the MIBK layer is fractionated and weighed to calculate the MIBK/water distribution ratio using the following equation: MIBK/water distribution ratio (%)=(Weight of separated MIBK layer (g)−Weight of MIBK before separation (g))/Weight of added crosslinking agent (g)×100 • this measurement is performed three times, and an average value thereof is defined as the MIBK/water distribution ratio.
First, about 5.0 g of water, about 5.0 g of MIBK and about 0.5 g of the epoxy crosslinking agent are precisely weighed and added to a test tube. The weight of MIBK and that of the epoxy crosslinking agent are defined as M (g) and E (g), respectively.
This mixture is thoroughly mixed with stirring for 3 minutes at a temperature of 23° C.±2° C. and subsequently separated into an aqueous layer and an MIBK layer by 10-minute centrifugation at 1.0×10^3 G. Thereafter, the weight of the MIBK layer is measured and defined as ML (g). MIBK/water distribution ratio (%)=(ML (g)−M (g))/E (g)×100
The methyl isobutyl ketone (MIBK)/water distribution ratio (%) was measured for the purpose of checking the amount of the movement of each epoxy crosslinking agent into an MIBK layer in an environment similar to the environment in a latex liquid.
3. Fractionate the thus separated MIBK layer into a disposable cup using a Pasteur pipette and measure the weight of the MIBK layer.
4. Calculate the MIBK/water distribution ratio using the following equation: MIBK/water distribution ratio (%)=(Weight (g) of separated MIBK layer−Weight (g) of MIBK before separation))/(Weight (g) of added crosslinking agent)×100
5. Perform this measurement three times, and calculate the average value thereof as the MIBK/water distribution ratio.
It is noted here that a vortex mixer (VORTEX-GENIE 2 Mixer, standard model; manufactured by Scientific Industries, Inc.) was used for the stirring in the procedure 2.

[2] = Dissolution rate in water of epoxy crosslinking agent; conditions: 25.0 g in 225 g water (25° C.), stirred 15 minutes, left to stand 1 hour
Procedure: 1. Precisely weigh 25.0 g of the epoxy crosslinking agent composition in a beaker, and add thereto 225 g of water (25° C.).
2. Vigorously stir and mix the resultant at room temperature (23° C.±2° C.) for 15 minutes, and leave the resulting mixture to stand for 1 hour.
3. Measure the volume (mL) of an oily matter precipitated on the bottom of the beaker.
The dissolution rate in water (%) was measured for the purpose of checking the solubility of each epoxy crosslinking agent in water. The dissolution rate in water can be measured by the following procedures.
1. Precisely weigh 25.0 g of the subject crosslinking agent composition in a beaker.
2. Add 225 g of 25° C. water, and vigorously stir the resultant at room temperature for 15 minutes using a magnetic stirrer.
3. After leaving the beaker to stand at room temperature for 1 hour, measure the volume (mL) of an oily matter precipitated on the bottom.

[3] = Pot life (working life) of dip molding composition; conditions: XNBR NL120H(a)
Source text: The term “pot life” used herein represents a property of a dip molding composition, and a method of determining the “pot life” will be described below in the section of Examples. Specifically, the “pot life” refers to a period from the preparation of a dip molding composition to the formation of a cured film, in which period the use of the dip molding composition allows the resulting cured film to satisfy specific criteria.
In the present invention, the acceptable level of the pot life of the dip molding composition necessary for mass production is defined as a level at which a film produced using the dip molding composition that has been stored for at least 3 days satisfies a tensile strength of 20 MPa or higher and a fatigue durability of 240 minutes or longer, which are performances required as a glove.
The pot life is determined based on the time from the addition of an epoxy crosslinking agent in the preparation of a dip molding composition to adhesion of the dip molding composition to a glove forming mold. Moreover, the types of XNBRs and epoxy crosslinking agents used in dip molding compositions are shown in the respective Tables below.
The pot life of each dip molding composition was determined by the following procedures. The unit of the pot life is day. The dip molding compositions were prepared using the respective epoxy crosslinking agents and stored, and cured films were produced at one-day intervals. […] The number of days of storage until the last acceptable day was defined as the pot life. In this Experimental Example, experiments were conducted until day 7 as the longest duration of storage.

[4] = 0.5 parts by weight epoxy crosslinking agent, fatigue durability 240 minutes acceptable line, experiments until day 7

| Compound | Dissolution rate in water [2] | MIBK/water distribution ratio [1] | other results |
| --- | --- | --- | --- |
| polyglycerol polyglycidyl ether [epoxy crosslinking agent L] |  |  | MIBK/water distribution ratio ([1]; listed as L): −10% |
| sorbitol polyglycidyl ether [epoxy crosslinking agent J] |  |  | Dissolution rate in water ([2]; listed as J): 94%; MIBK/water distribution ratio ([1]; listed as J): 23% |
| polyglycerol polyglycidyl ether [epoxy crosslinking agent K] | 100% |  | MIBK/water distribution ratio ([1]; listed as K): 6% |
| polyethylene glycol diglycidyl ether [epoxy crosslinking agent N] | 99% | 4% |  |
| diglycerol triglycidyl ether [epoxy crosslinking agent G] | 88% | 36% | Pot life [3, 4]: 3 days |
| sorbitol polyglycidyl ether [epoxy crosslinking agent I] |  |  | Dissolution rate in water ([2]; listed as I): 78%; MIBK/water distribution ratio ([1]; listed as I): 26% |
| C(OCC1CO1)C(COCC1CO1)OCC1CO1 (stereo not drawn) [epoxy crosslinking agent H, glycerol triglycidyl ether] | 99% | 28% | Pot life [3, 4]: 2 days; Pot life ([3]; added amount of epoxy crosslinking agent increased to 1.0 part by weight): 3 days |
| CC(COCC1CO1)OCC1CO1 (stereo not drawn) [epoxy crosslinking agent M, propylene glycol diglycidyl ether] | 75% | 57% |  |
